# Laboratory results reported in patent publication US20090054376A1, “BENZOFURAN DERIVATIVES WITH THERAPEUTIC ACTIVITIES” (Pharmos Corporation, priority 2005, published 2009).
# System: visceral pain writhing responses
# Experiment: Tolerance: repeated administration in the model of Visceral Pain
# Type: in vivo, mice
# Conditions: tested day 11 at 2 mg/kg i.v.
# Protocol: Male ICR mice (average body weight 25 g, Harlan, Israel) were pretreated by i.v. injection at volume dose of 5 ml/kg of vehicle, control and test compounds at various doses. Other routes of administration were tested for selected compounds including i.m. or s.c. injections at volume dose of 2.5 ml/kg and p.o. gavage at volume dose of 5 ml/kg. Compounds were dissolved in CREMOPHOR®:Ethanol and diluted 1:20 in saline prior to injection or gavage. Compounds administered i.v. were injected fifteen minutes before pain induction, whereas compounds administered i.m., s.c. or p.o. were supplied thirty minutes before pain induction, unless otherwise indicated. Each treatment group, except for controls comprising at least 30 animals, was composed of at least 6 animals. Fifteen or thirty minutes after drug administration, depending on the route of administration, the mice were injected i.p. with 10 ml/kg of 0.6% acetic acid and the number of visceral pain related behaviors (writhing movements globally defined as WR, i.e. stretching, contractions of the abdomen accompanied by an elongation of the body and extension of the hind limbs) was counted over a period of 5 minutes, starting 5 minutes after the acetic acid administration. These visceral pain related behaviors were globally defined as writhing responses (WR). The results are expressed as mean number of writhing responses ±SEM. Data were analyzed using analysis of variance (ANOVA) followed by post-hoc Fisher test.
# Briefly compounds of the invention were administered at 10 mg/kg i.p. daily for 10 days and their analgesic activity was tested on day 11 as described in Example 17 (namely at 2 mg/kg i.v.). […] Each treatment group comprised 10 animals.
smiles,measurement,setting,value
"CCCCCCC(C)(C)c1cc(O)c2c(c1)OC1C(O)CCCCC21 (stereo not drawn) [Compound C7S-2, 2-(1,1-dimethylheptyl)-5,6,7,8,9,9a-hexahydro-4bH-10-oxa-benzo[α]azulen-4,9-diol]",writhing responses on day 11,"repeated administration daily for 10 days (10 mg/kg i.p.), vehicle 29.75±1.09",2.45±1.49
same,reduction in pain response after repeated administration,repeated administration daily for 10 days,92%
